Experimental data reported in patent publication US12157730B2, “Heteroaryl derivative, method for producing same, and pharmaceutical composition comprising same as effective component” (VORONOI INC., priority 2019, dated 2024).

Columns and labels:
[1] = molecular target: T1, Ba/F3 cell EGFR L858R/T790M (Homo sapiens, UniProt P00533, L858R/T790M); assay: Ba/F3 cell proliferation suppression, EGFR L858R/T790M; format: cell-based; conditions: 72 hours after treatment, CellTiter-Glo
T1 construct: expressed in transfected cells; host or cells: Ba/F3
In short: (§1)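 Growth suppression determined as GI50 following 72 h exposure across 12 concentrations up to 50 um, with viability by luminescent ATP assay (CellTiter-Glo).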

[2] = system: Ba/F3 cell EGFR Del19/T790M; assay: Ba/F3 cell proliferation suppression, EGFR Del19/T790M; format: cell-based; conditions: 72 hours after treatment, CellTiter-Glo
Procedure: (§2) The following experiment was carried out to evaluate the suppression activity of the compounds according to the present invention against proliferation of Ba/F3 and lung cancer cells which express EGFR mutations.
(§3) Of the cancer cell lines expressing the EGFR gene, A549 was cultured after adding 10% FBS (HyClone) to DMEM (Invitrogen), and RPMI-1640 (Invitrogen) with 10% FBS was used for the other cancer cells. For the Ba/F3 cells, RPMI-1640 with 10% FBS and 5 ng/ml IL-3 (R&D Systems) was used. The transduced Ba/F3 cells were cultured by adding 1 ug/ml puromycin (Invitrogen) to the same medium.
(§4) 24 hours before treatment with the compounds, 3000 to 5000 cells were distributed into each well of a white clear bottom 96 well plate (Corning). The compounds were diluted in dimethylsulfoxide (dilution ratio 3:1; 12 concentrations total) and injected 0.5 ul each for a final concentration of 0.3 nM to 50 um. As for measurement of live cells, 72 hours after treatment with the compounds, a CellTiter-Glo luminescent cell-viability reagent (Promega) was used to store the cells at room temperature for 10 minutes, followed by measurement of luminescence using a reader (SynergyNeo, Biotek). Each test was repeated three times.
(§5) The result was calculated as a cell growth ratio (%) compared to a control. The program GraphPad Prism version 5.0 was used to draw the graphs and calculate the GI50 values.

Ba/F3 cell EGFR L858R = molecular target: T2, Ba/F3 cell EGFR L858R (Homo sapiens, UniProt P00533, L858R); assay: Ba/F3 cell proliferation suppression, EGFR L858R; format: cell-based; conditions: 72 hours after treatment, CellTiter-Glo
T2 construct: expressed in transfected cells; host or cells: Ba/F3
Procedure: as §2, §3, §4, §5

[3] = molecular target: T3, Ba/F3 cell EGFR Exon20 ins NPH (Homo sapiens, UniProt P00533, INS773NPH); assay: Ba/F3 cell proliferation suppression, EGFR Exon20 ins NPH; format: cell-based; conditions: for GI50: 72 hours after treatment, CellTiter-Glo; for Ba/F3 (NPH) Activity: GI50 class, Ba/F3 cell line with NPH inserted at Exon20 of EGFR, 72 hours
T3 construct: expressed in transfected cells; host or cells: Ba/F3
In short: as §1

[4] = molecular target: T4, Ba/F3 cell EGFR Exon20 ins SVD (Homo sapiens, UniProt P00533, INS770SVD); assay: Ba/F3 cell proliferation suppression, EGFR Exon20 ins SVD; format: cell-based; conditions: 72 hours after treatment, CellTiter-Glo
T4 construct: expressed in transfected cells; host or cells: Ba/F3
Procedure: as §2, §3, §4, §5

[5] = molecular target: T5, Ba/F3 cell EGFR Exon20 ins FQEA (Homo sapiens, UniProt P00533, INS763FQEA); assay: Ba/F3 cell proliferation suppression, EGFR Exon20 ins FQEA; format: cell-based; conditions: 72 hours after treatment, CellTiter-Glo
T5 construct: expressed in transfected cells; host or cells: Ba/F3
Procedure: as §2, §3, §4, §5

[6] = system: Ba/F3 cell EGFR Exon20 ins H; assay: Ba/F3 cell proliferation suppression, EGFR Exon20 ins H; format: cell-based; conditions: 72 hours after treatment, CellTiter-Glo
Procedure: as §2, §3, §4, §5

[7] = molecular target: T6, Ba/F3 cell EGFR Exon20 ins ASV (Homo sapiens, UniProt P00533, INS769ASV); assay: Ba/F3 cell proliferation suppression, EGFR Exon20 ins ASV; format: cell-based; conditions: 72 hours after treatment, CellTiter-Glo
T6 construct: expressed in transfected cells; host or cells: Ba/F3
Procedure: as §2, §3, §4, §5

[8] = molecular target: T7, Ba/F3 cell HER2 Exon20 ins YVMA (Homo sapiens, UniProt P04626, INS775YVMA); assay: Ba/F3 cell proliferation suppression, HER2 Exon20 ins YVMA; format: cell-based; conditions: 72 hours after treatment, CellTiter-Glo
T7 construct: expressed in transfected cells; host or cells: Ba/F3
T7 sequence (P04626 with tags, fused parts or gaps INS775YVMA): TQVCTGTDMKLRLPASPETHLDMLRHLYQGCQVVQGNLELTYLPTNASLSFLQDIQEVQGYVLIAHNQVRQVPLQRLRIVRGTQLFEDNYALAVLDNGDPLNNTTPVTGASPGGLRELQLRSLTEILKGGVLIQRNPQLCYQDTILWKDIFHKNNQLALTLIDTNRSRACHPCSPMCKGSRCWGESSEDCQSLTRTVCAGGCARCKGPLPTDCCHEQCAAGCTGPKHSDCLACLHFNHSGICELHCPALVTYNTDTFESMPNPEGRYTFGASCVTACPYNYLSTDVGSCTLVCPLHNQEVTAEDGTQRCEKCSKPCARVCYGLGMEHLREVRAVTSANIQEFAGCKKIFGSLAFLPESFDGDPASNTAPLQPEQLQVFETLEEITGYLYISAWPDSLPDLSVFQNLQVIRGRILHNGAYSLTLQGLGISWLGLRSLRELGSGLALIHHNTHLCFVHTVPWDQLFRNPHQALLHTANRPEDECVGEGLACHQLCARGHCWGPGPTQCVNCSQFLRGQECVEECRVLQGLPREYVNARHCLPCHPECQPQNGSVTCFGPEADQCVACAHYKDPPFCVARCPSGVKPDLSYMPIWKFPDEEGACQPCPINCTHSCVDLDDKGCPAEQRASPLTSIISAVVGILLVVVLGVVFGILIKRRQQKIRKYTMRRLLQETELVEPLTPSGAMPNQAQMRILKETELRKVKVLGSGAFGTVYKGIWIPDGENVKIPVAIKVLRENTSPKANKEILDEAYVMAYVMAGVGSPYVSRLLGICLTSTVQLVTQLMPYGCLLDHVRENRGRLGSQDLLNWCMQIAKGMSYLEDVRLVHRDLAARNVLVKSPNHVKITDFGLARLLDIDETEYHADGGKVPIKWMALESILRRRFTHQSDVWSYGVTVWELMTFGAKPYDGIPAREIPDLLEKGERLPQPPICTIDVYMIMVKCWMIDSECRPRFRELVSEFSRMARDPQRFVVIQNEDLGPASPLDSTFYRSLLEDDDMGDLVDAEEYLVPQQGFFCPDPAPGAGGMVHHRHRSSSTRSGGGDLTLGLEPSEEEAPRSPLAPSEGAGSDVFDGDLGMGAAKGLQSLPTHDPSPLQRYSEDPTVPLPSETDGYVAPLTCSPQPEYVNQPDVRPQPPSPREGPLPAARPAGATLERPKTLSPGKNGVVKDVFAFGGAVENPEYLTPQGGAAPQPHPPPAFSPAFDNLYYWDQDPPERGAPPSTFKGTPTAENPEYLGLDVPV
Procedure: as §2, §3, §4, §5

Ba/F3 cell naive = assay: Ba/F3 cell proliferation suppression, naive; format: cell-based; conditions: Mus musculus, BaF3; 72 hours after treatment, CellTiter-Glo
In short: as §1

PC9GR = assay: Lung cancer cell proliferation suppression, PC9GR; format: cell-based; conditions: 72 hours after treatment, CellTiter-Glo
Procedure: as §2, §3, §4, §5

H1975 = assay: Lung cancer cell proliferation suppression, H1975; format: cell-based; conditions: Homo sapiens, NCI-H1975; 72 hours after treatment, CellTiter-Glo
Procedure: as §2, §3, §4, §5

PC9 = assay: Lung cancer cell proliferation suppression, PC9; format: cell-based; conditions: Homo sapiens, PC-9; 72 hours after treatment, CellTiter-Glo
Procedure: as §2, §3, §4, §5

[9] = Cancer cell proliferation suppression, A549; format: cell-based; conditions: A459; 72 hours after treatment, CellTiter-Glo
Procedure: as §2, §3, §4, §5

[10] = system: scanMAX kinase panel (EGFR mutant, ERBB2, ERBB4); assay: DiscoverX (eurofin) KINOMEscan (scanMAX platform) kinase profiling; format: binding; conditions: for suppression activity against the EGFR mutant and ERBB2 and ERBB4: KINOMEscan scanMAX kinase profiling
From the text: It was confirmed that the above example compounds had high selectivity against EGFR series genes. Accordingly, these can be useful in the treating of cancers wherein this kinase is expressed. In particular, as they have substantially outstanding lung cancer cell line proliferation suppression, they can be useful in the treatment of lung cancer, breast cancer, and brain cancer.

SMILES | GI50 [1] [µM] | GI50 [2] [µM] | GI50 (Ba/F3 cell EGFR L858R) [µM] | GI50 [3] [µM] | Ba/F3 (NPH) Activity [3] | GI50 [4] [µM] | GI50 [5] [µM] | GI50 [6] [µM] | GI50 [7] [µM] | GI50 [8] [µM] | GI50 (Ba/F3 cell naive) [µM] | GI50 (PC9GR) [nM] | GI50 (H1975) [nM] | GI50 (PC9) [nM] | GI50 [9] [nM] | other results
C=CC(=O)Nc1cc(Nc2cc(N3OCC[C@@H]3c3ccccc3)ncn2)ccc1N1CCN(C)CC1 [Example 29, N-(2-(4-methylpiperazine-1-yl)-5-((6-((R)-3-phenylisoxazolidine-2-yl)pyrimidine-4-yl)amino)phenyl) acrylamide] | < 0.05 | < 0.05 | < 0.05 | < 0.05 | A (GI50 < 50 nM) | < 0.05 | < 0.05 | < 0.05 | < 0.05 | < 0.05 | ≥ 5 | – | – | – | – | –
C=CC(=O)Nc1cc(Nc2cc(N3OCC[C@@H]3c3ccccc3)ncn2)c(OC)cc1N1CCC(N(C)C)CC1 [Example 12, N-(2-(4-(dimethylamino)piperidine-1-yl)-4-methoxy-5-((6-((R)-3-phenylisoxazolidine-2-yl)pyrimidine-4-yl)amino)phenyl) acrylamide] | < 0.05 | < 0.05 | < 0.05 | < 0.05 | A (GI50 < 50 nM) | < 0.05 | < 0.05 | < 0.05 | < 0.05 | < 0.05 | ≥ 5 | 5 | 8 | 12 | > 15000 | –
C=CC(=O)Nc1cc(Nc2cc(N3OCC[C@@H]3c3ccccc3)ncn2)c(OC)cc1N1CCN(C2CCN(C)CC2)CC1 [Example 10] | < 0.05 | < 0.05 | < 0.05 | < 0.05 | A (GI50 < 50 nM) | < 0.05 | < 0.05 | < 0.05 | < 0.05 | < 0.05 | ≥ 5 | 10 | 13 | 14 | > 15000 | –
C=CC(=O)Nc1cc(Nc2cc(N3OCC[C@H]3c3ccccc3)ncn2)c(OC)cc1N1CCN(C)CC1 [Example 3, N-(4-methoxy-2-(4-methylpiperazine-1-yl)-5-((6((S)-3-phenylisoxazolidine-2-yl)pyrimidine-4-yl)amino)phenyl) acrylamide] | 0.5 to 5 | 0.05 to 0.5 | – | 0.05 to 0.5 | B (50 nM ≤ GI50 < 500 nM) | 0.05 to 0.5 | < 0.05 | 0.5 to 5 | 0.05 to 0.5 | 0.05 to 0.5 | ≥ 5 | – | – | – | – | –

Second part, led by results:

GI50 [1] [µM] | GI50 [2] [µM] | GI50 (Ba/F3 cell EGFR L858R) [µM] | GI50 [3] [µM] | Ba/F3 (NPH) Activity [3] | GI50 [4] [µM] | GI50 [5] [µM] | GI50 [6] [µM] | GI50 [7] [µM] | GI50 [8] [µM] | GI50 (Ba/F3 cell naive) [µM] | GI50 (PC9GR) [nM] | GI50 (H1975) [nM] | GI50 (PC9) [nM] | GI50 [9] [nM] | SMILES | other results
< 0.05 | < 0.05 | < 0.05 | < 0.05 | A (GI50 < 50 nM) | < 0.05 | < 0.05 | < 0.05 | < 0.05 | < 0.05 | 0.5 to 5 | – | – | – | – | C=CC(=O)Nc1cc(Nc2cc(N3OCC[C@@H]3c3ccccc3)ncn2)ccc1N(C)CCN(C)C [Example 28] | –
< 0.05 | < 0.05 | < 0.05 | < 0.05 | A (GI50 < 50 nM) | < 0.05 | < 0.05 | < 0.05 | < 0.05 | < 0.05 | ≥ 5 | 4 | 6 | 1 | > 15000 | C=CC(=O)Nc1cc(Nc2cc(N3OCC[C@@H]3c3ccccc3)ncn2)c(OC)cc1N1CCC(N2CCN(C)CC2)CC1 [Example 9] | % inhibition of scanMAX Kinase profiling ([10]; EGFR(E746-A750del)): 100%; % inhibition of scanMAX Kinase profiling ([10]; EGFR(G719C)): 100%; % inhibition of scanMAX Kinase profiling ([10]; EGFR(G719S)): 100%; % inhibition of scanMAX Kinase profiling ([10]; EGFR(L747-E749del, A750P)): 100%; % inhibition of scanMAX Kinase profiling ([10]; EGFR(L747-T751del.Sins)): 100%; % inhibition of scanMAX Kinase profiling ([10]; EGFR(L858R)): 100%; % inhibition of scanMAX Kinase profiling ([10]; EGFR(L858R.T790M)): 96%; % inhibition of scanMAX Kinase profiling ([10]; EGFR(L861q)): 100%; % inhibition of scanMAX Kinase profiling ([10]; EGFR(S752-I759del)): 100%; % inhibition of scanMAX Kinase profiling ([10]; EGFR(T790M)): 99%; % inhibition of scanMAX Kinase profiling ([10]; ERBB2): 100%; % inhibition of scanMAX Kinase profiling ([10]; ERBB4): 100%; suppression activity against the EGFR mutant and ERBB2 and ERBB4 [10]: high suppression activity
< 0.05 | < 0.05 | < 0.05 | < 0.05 | A (GI50 < 50 nM) | < 0.05 | < 0.05 | < 0.05 | < 0.05 | < 0.05 | ≥ 5 | 6 | 13 | 7 | > 15000 | C=CC(=O)Nc1cc(Nc2cc(N3OCC[C@@H]3c3ccccc3)ncn2)c(OC)cc1N1CCN(CC)CC1 [Example 15, N-(2-(4-ethylpiperazine-1-yl)-4-methoxy-5-((6-((R)-phenylisoxazolidine-2-yl)pyrimidine-4-yl)amino)phenyl) acrylamide] | –
< 0.05 | < 0.05 | < 0.05 | < 0.05 | A (GI50 < 50 nM) | < 0.05 | < 0.05 | < 0.05 | < 0.05 | < 0.05 | ≥ 5 | 64 | 63 | 12 | > 15000 | C=CC(=O)Nc1cc(Nc2cc(N3OCC[C@@H]3c3ccccc3)ncn2)c(OC)cc1N1CC[C@@H](N(C)C)C1 [Example 13] | –
< 0.05 | < 0.05 | < 0.05 | < 0.05 | A (GI50 < 50 nM) | < 0.05 | < 0.05 | < 0.05 | < 0.05 | < 0.05 | ≥ 5 | 32 | 60 | 1 | > 15000 | C=CC(=O)Nc1cc(Nc2cc(N3OCC[C@@H]3c3ccccc3)ncn2)c(OC)cc1N1CCN(C)CC1 [Example 6, N-(4-methoxy-2-(4-methylpiperazine-1-yl)-5-((6-((R)-3-phenylisoxazolidine-2-yl)pyrimidine-4-yl)amino)phenyl) acrylamide] | % inhibition of scanMAX Kinase profiling ([10]; EGFR(E746-A750del)): 100%; % inhibition of scanMAX Kinase profiling ([10]; EGFR(G719C)): 100%; % inhibition of scanMAX Kinase profiling ([10]; EGFR(G719S)): 100%; % inhibition of scanMAX Kinase profiling ([10]; EGFR(L747-E749del, A750P)): 100%; % inhibition of scanMAX Kinase profiling ([10]; EGFR(L747-T751del.Sins)): 100%; % inhibition of scanMAX Kinase profiling ([10]; EGFR(L858R)): 100%; % inhibition of scanMAX Kinase profiling ([10]; EGFR(L858R.T790M)): 85%; % inhibition of scanMAX Kinase profiling ([10]; EGFR(L861q)): 100%; % inhibition of scanMAX Kinase profiling ([10]; EGFR(S752-I759del)): 96%; % inhibition of scanMAX Kinase profiling ([10]; EGFR(T790M)): 100%; % inhibition of scanMAX Kinase profiling ([10]; ERBB2): 100%; % inhibition of scanMAX Kinase profiling ([10]; ERBB4): 100%; suppression activity against the EGFR mutant and ERBB2 and ERBB4 [10]: high suppression activity
